Patent US20240254087A1, “SELECTIVE, PARTIAL, AND ARRESTIN-BIASED 5-HT2A AGONISTS WITH UTILITY IN VARIOUS DISORDERS” (Saint Joseph's University, priority 2021, published 2024)
“Also recorded” adds a separate entry of the source.

What was measured:
5-HT2A [1] = biological target: T1, 5-HT2A (Homo sapiens, UniProt P28223); experiment: cell-based; design: expressed in transfected cells; host or cells: HEK293T, transient; conditions: for Emax: read-out: 5-HT2A β-arrestin Emax (% 5-HT), BRET, mean ± SEM
h5-HT2A = biological target: T2, h5-HT2A (Homo sapiens, UniProt P28223); experiment: Antagonism of 5-HT induced Ca2+ flux activation; type: cell-based; conditions: FIG. 1D
T2 construct: expressed in transfected cells
Description: (A). DOI, a hallucinogen and 5-HT2A agonist, was administered IP 10 min after SC administration of vehicle or test drug. A and then HTR activity was assessed for 30 minutes. *p<0.001, significant difference vs. vehicle (B). Vehicle or the NMDA receptor antagonist PCP (5 mg/kg) was injected IP 10 min after SC administration of vehicle or 25N-NB1-Nap (16), and then the mice were placed in the test chambers 10 min later for a 60-min assessment of locomotor activity. (C). […] Mice were treated with vehicle or M100907 (0.03 mg/kg SC) 10 min prior to vehicle or PCP (5 mg/kg IP): animals were placed in the test chambers 10 min after treatment with PCP. Animals were tested for 60 min. *p<0.01 vs. vehicle: ^#p<0.01 vs. PCP alone.
Calcium flux was measured using stable-expressing 5-HT2 Flp-In 293 T-Rex Tetracycline inducible system described previously (Investigation of the Structure-Activity Relationships of Psilocy bin Analogues, ACS Pharmacol. Transl. Sci. 2020, Publication Date: Dec. 14, 2020, https://doi.org/10.1021/acsptsci.0c00176). […] After dye load, cells were allowed to equilibrate to room temperature for 15 minutes, and then placed in a FLIPR^TETRA fluorescence imaging plate reader (Molecular Devices). Fluorescence for the FLIPR^TETRA were programmed to read baseline fluorescence for 10 s (1 read/s), and afterward 5 μl of drug per well was added and read for a total of 5-10 min (1 read/s). […]

male C57BL/6J mice = experiment: Blockade of agonist-induced HTR by pretreatment; type: in vivo, mouse; conditions: pretreatment of mice with test compound
Description: Vehicle or the NMDA receptor antagonist PCP (5 mg/kg) was injected IP 10 min after SC administration of vehicle or 25N-NB1-Nap (16), and then the mice were placed in the test chambers 10 min later for a 60-min assessment of locomotor activity. (C). […] Mice were treated with vehicle or M100907 (0.03 mg/kg SC) 10 min prior to vehicle or PCP (5 mg/kg IP): animals were placed in the test chambers 10 min after treatment with PCP.
Male C57BL/6J mice (6-8 weeks old) from Jackson Labs (Bar Harbor, ME, USA) were used for the behavioral experiments. The mice were housed on a reversed light-dark cycle (lights on at 1900 h, off at 0700 h) in an AAAC-approved vivarium at the University of California San Diego. Mice were housed up to four per cage in a climate-controlled room and with food and water provided ad libitum except during behavioral testing. Testing was performed between 1000 and 1800 h (during the dark phase of the light-dark cycle). The studies were conducted in accordance with National Institutes Health (NIH) guidelines and were approved by the University of California San Diego Institutional Animal Care and Use Committee.
The mice were allowed to recover from the magnet implantation surgeries for at least 1 week prior to behavioral testing. HTR experiments were conducted in a well-lit room, and the mice were allowed to habituate to the room for at least 1 h prior to testing. Head twitches was assessed in a 12-cm diameter glass cylinder surrounded by a magnetometer coil. Coil voltage was low-pass filtered (2 kHz), amplified, and digitized (20-kHz sampling rate) using a Powerlab/8SP with LabChart v 7.3.2 (ADInstruments, Colorado Springs, CO, USA). […] HTR counts were analyzed using one-way ANOVAs. Dunnett's test was used for post hoc comparisons.

5-HT2A [2] = biological target: T1, 5-HT2A; experiment: [3H]-ketanserin displacement, 5-HT2A membranes; type: binding; design: ES-313-M400UA (membranes); host or cells: CHO-K1
5-HT2A [3] = biological target: T1, 5-HT2A; experiment: Antagonism of 5-HT-induced Gq signaling (BRET); type: cell-based; design: expressed in transfected cells; host or cells: HEK293T, transient
5-HT2A [4] = biological target: T1, 5-HT2A; experiment: NanoLuc internalization assay; type: cell-based; conditions: 60 min
humans = conditions: intranasal or sublingual routes; cited from earlier work

T1 sequence (P28223 whole entry): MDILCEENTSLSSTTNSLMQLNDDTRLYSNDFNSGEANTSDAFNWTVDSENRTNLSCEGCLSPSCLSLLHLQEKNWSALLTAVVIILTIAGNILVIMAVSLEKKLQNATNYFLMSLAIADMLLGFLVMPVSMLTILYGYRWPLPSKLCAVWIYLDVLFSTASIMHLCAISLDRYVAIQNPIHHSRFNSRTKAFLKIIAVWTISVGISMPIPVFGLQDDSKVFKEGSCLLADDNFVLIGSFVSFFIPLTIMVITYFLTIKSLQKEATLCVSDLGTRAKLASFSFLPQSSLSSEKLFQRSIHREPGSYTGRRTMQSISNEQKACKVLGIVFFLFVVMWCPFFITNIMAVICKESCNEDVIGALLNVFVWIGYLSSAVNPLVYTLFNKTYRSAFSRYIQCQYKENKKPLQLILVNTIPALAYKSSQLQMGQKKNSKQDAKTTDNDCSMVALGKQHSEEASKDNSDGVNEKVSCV
T2 sequence (P28223 whole entry): as above

SMILES | Emax (5-HT2A [1]) [%] | Blockade of the HTR induced by DOI (male C57BL/6J mice) | Internalization of 5-HT2A receptors (5-HT2A [4]) | also measured
COc1cc([N+](=O)[O-])c(OC)cc1CCN [2C-N (1), 2-(2,5-dimethoxy-4-nitrophenyl)ethan-1-amine, reference compound] | 83.8 ± 2.5 | – | – | –
COc1cc([N+](=O)[O-])c(OC)cc1CCNCc1cccc2ccccc12 [25N-N-1-Nap (16), [2-(2,5-dimethoxy-4-nitrophenyl)ethyl][(naphthalen-1-yl)methyl]amine] | 78.2 ± 1.8 | blocked the HTR | potent and strong internalization | Antagonism of 5-HT induced h5-HT2A Ca2+ flux activation (h5-HT2A): Antagonism; Ki (5-HT2A [2]): 4.27 nM; Antagonism of 5-HT-induced 5-HT2A-mediated Gq signaling (5-HT2A [3]): antagonized
COc1cc([N+](=O)[O-])c(OC)cc1CCNCc1ccccc1 [25N-NB (2), Benzyl[2-(2,5-dimethoxy-4-nitrophenyl)ethyl]amine] | 115 ± 4.1 | – | – | –
COc1cc([N+](=O)[O-])c(OC)cc1CCNCc1cccc(F)c1OC [25N-NB-2-MeO-3-F (19), [2-(2,5-dimethoxy-4-nitrophenyl)ethyl][(3-fluoro-2-methoxyphenyl)methyl]amine] | 120 ± 3.3 | – | – | –
COc1cc([N+](=O)[O-])c(OC)cc1CCNCc1cccc(C)c1O [25N-NB-2-OH-3-Me (18), 2-({[2-(2,5-dimethoxy-4-nitrophenyl)ethyl]amino}methyl)-6-methylphenol] | 131 | blocked the HTR; also recorded: can block the HTR | – | Difference in Emax (β-arrestin vs Gq) (5-HT2A [1]; BRET): 81%; 5-HT2A β-arrestin Emax (% 5-HT) (5-HT2A [1]; BRET, mean ± SEM): 130.7 ± 4.0 % 5-HT
COc1cc([N+](=O)[O-])c(OC)cc1CCNCc1cccc(C)c1 [25N-NB-3-Me (22), [2-(2,5-dimethoxy-4-nitrophenyl)ethyl][(3-methylphenyl)methyl]amine] | 94.7 ± 4.2 | – | – | –
COc1cc([N+](=O)[O-])c(OC)cc1CCNCc1cccc(O)c1 [25N-NB-3-OH (21), 3-({[2-(2,5-dimethoxy-4-nitrophenyl)ethyl]amino}methyl)phenol] | 119 ± 5.2 | – | – | –
COc1cc([N+](=O)[O-])c(OC)cc1CCNCc1ccccc1OC [25N-NBOMe (4), [2-(2,5-dimethoxy-4-nitrophenyl)ethyl] [(2-methoxyphenyl)methyl]amine] | 136 ± 3.8 | – | strong internalization | Active dose in humans (humans): 0.3 to 0.8 mg; Ki (5-HT2A [2]): 1.41 nM
COc1cc([N+](=O)[O-])c(OC)cc1CCNCc1ccccc1-c1ccccc1 [25N-NBPh (17), ({[1,1′-biphenyl]-2-yl}methyl)[2-(2,5-dimethoxy-4-nitrophenyl)ethyl]amine] | 109 ± 2.8 | blocked the HTR | potent and strong internalization | Antagonism of 5-HT induced h5-HT2A Ca2+ flux activation (h5-HT2A): Antagonism; Antagonism of 5-HT-induced 5-HT2A-mediated Gq signaling (5-HT2A [3]): antagonized
